Broadly, the IC50 is the concentration needed to halve the response being measured.

One test relates to HCT-15. Put plainly: Single dose cell viability assay, HCT-15. The following applies: HCT-15 (Colon), single dose 25 μM. It counts as cell-based. Here is the method: (§1) Lead abbapolin compounds were tested in multiple cancer cell lines, including non-small cell lung cancer (NSCLC) cells, melanoma cells, colon cancer cells, central nervous system (CNS) cancer cells, prostate cancer cells, renal cancer cells, and breast cancer cells. Each of these cancer cells lines were sensitive to the lead abbapolin compounds in a cell viability assay, including 6184 (Table 3), 6277 (Table 4), 6279 (Table 5), 6355 (Table 6), 6359 (Table 7), 6369 (Table 8), and 6421 (Table 9).

Another test deals with MDA-MB-468. Description: Single dose cell viability assay, MDA-MB-468. It counts as cell-based. Conditions: MDA-MB-468 (Breast), single dose 25 μM. Here is the method: as §1
In a further test the test system is SK-MEL-5. Put plainly: Single dose cell viability assay, SK-MEL-5. It counts as cell-based. The following applies: SK-MEL-5 (Melanoma), single dose 25 μM. Here is the method: as §1
The next test deals with NCI-H522. Put plainly: Single dose cell viability assay, NCI-H522. Conditions: NCI-H522 (NSCLC), single dose 25 μM. It counts as cell-based. Here is the method:
as §1

In another test the test system is HOP-92. Put plainly: Single dose cell viability assay, HOP-92. It is filed as cell-based. Conditions: HOP-92 (NSCLC). Here is the method:
as §1

Another test has as its system SF-295. Put plainly: Single dose cell viability assay, SF-295. Conditions: SF-295 (CNS), single dose 25 μM. It is filed as cell-based. Here is the method:
as §1

The next test relates to UACC-62. Description: Single dose cell viability assay, UACC-62. It is filed as cell-based. The following applies: UACC-62 (Melanoma), single dose 25 μM. Here is the method:
as §1

The next test deals with RPMI-8226. Put plainly: Single dose cell viability assay, RPMI-8226. Conditions: RPMI-8226 (Leukemia), single dose 25 μM. It is filed as cell-based. Here is the method: as §1
For a further test, the system named is CCRF-CEM. Description: Single dose cell viability assay, CCRF-CEM. It is filed as cell-based. Conditions: CCRF-CEM (Leukemia), single dose 25 μM. Here is the method:
as §1

The next test concerns SK-MEL-2. Put plainly: Single dose cell viability assay, SK-MEL-2. It is filed as cell-based. The following applies: SK-MEL-2 (Melanoma), single dose 25 μM. Here is the method:
as §1

Another test deals with U251. Put plainly: Single dose cell viability assay, U251. It counts as cell-based. The following applies: U251 (CNS), single dose 25 μM. Here is the method:
as §1

Another test concerns the target T1, PLK1 PBD (367-603) (Homo sapiens, UniProt P53350).
T1 construct: PLK1 PBD (367-603) and PLK3 PBD (335-646) proteins were obtained from BPS Biosciences Inc; purchased BPS Biosciences Inc. (San Diego, CA)
Put plainly: Fluorescence polarization assay, PLK1 PBD. It counts as binding. The following applies: for IC50: fluorescence polarization, read-out: PLK1 PBD IC50. Here is the method:
(§2) Materials were dissolved in DMSO (10 mM) and diluted from 10 nM to 600 μM (maximum of 6% DMSO tolerance in the assay). PLK1 PBD (367-603) and PLK3 PBD (335-646) proteins were obtained from BPS Biosciences Inc. (San Diego, CA); 17 ng PLK1 and 156 ng PLK3 were used per reaction. The fluorescein-tracer phospho-peptides (MAGPMQS[pT]PLNGAKK (SEQ ID NO: 1) for PLK1, and GPLATS[pT]PKNG (SEQ ID NO: 2) for PLK3) were used at a final concentration of 10 nM. Incubation was carried out at room temperature for 45 minutes. Fluorescence was measured using a DTX 880 plate reader and Multimode Analysis software (Beckman Coulter, Brea, CA). The polarization values in millipolarization (mP) units were measured at an excitation wavelength of 488 nm and an emission wavelength of 535 nm. Each data point was performed in triplicate for every experiment, and experiments were performed at least three times. An IC50 value for each compound was calculated from linear regression analysis of the plots.
For orientation: Fluorescence polarisation rises when a labelled molecule tumbles more slowly, as on binding a larger partner.

For test [1], the system named is PC3 prostate cancer cells. Put plainly: MTT cell viability assay, PC3. It counts as cell-based. The following applies: for IC50: MTT. Here is the method:
PC3 prostate cancer cells were maintained in DMEM (Invitrogen™, Carlsebad, CA) supplemented with 10% FBS or Corning® Nu-serum™(BD™ Biosciences, Franklin Lakes, NJ) and 1% penicillin/streptomycin (Invitrogen™) in a humidified incubator and 5% CO2 at 37° C.
Exponentially growing cells were plated in 96-well dishes. Dose response curves were used to treat cells for 72 hours with inhibitors. Following the three-day treatment, cell viability was measured using the MTT (3-(4,5-dimethylthiazol-2-yl)-2,5-diphenyltetrazolium bromide) colorimetric assay. Cells were incubated for 3 hours with MTT allowing viable cells to metabolize the tetrazolium dye to a purple colored solution. Absorbance measurements (595 nm) were quantified using a DTX 880 plate reader and IC50 values were generated for FLIPs.
Background: Tetrazolium dyes change colour on reduction, which living cells bring about.

Test [2] concerns the target T2, PLK1 (Homo sapiens, UniProt P53350). Put plainly: Cellular thermal shift assay (CETSA). Details: endogenous in cells; host or cells: PC3 prostate cancer cells. Conditions: intracellular PLK1. It counts as cell-based. Here is the method:
Cellular thermal shift assay (CETSA) was performed with PC3 cells cultured in RPMI medium supplemented with 10% FBS. For an initial determination of the melting profile of PLK1 AND PLK3, cells dispensed into 96-well PCR plates in the above medium (6000 cells/well in 50 μL) were subjected to temperature gradient (38-60° C.) for 10 min. […] Centrifugation was performed at 14000 rpm to sediment the denatured protein content. Supernatant was collected and subjected to SDS-PAGE, and immunodetection was performed using anti-PLK1 and anti-PLK3 antibodies. PLK1 and PLK3 bands were quantified on a LI-COR C-Digit Blot Scanner, and Tagg and Tagg values were calculated for both proteins. In subsequent experiments, cells were treated at increasing doses (3.0, 1.0, 0.3, 0.1, 0.03 μM) of inhibitors together with DMSO control, for 2 h. Cells were then subjected to heat shock at Tagg for 10 min, and unstable protein was removed by centrifugation step. Following immuno-blotting, bands of stable PLK1 and PLK3 were quantified, normalized to loading control and plotted using GraphPad Prism software. EC50 values for inhibitors were calculated. […] The EC50 of the peptides were determined from the curve fit of the dose response.

Another test has as its target T3, PLK3 PBD (335-646) (Homo sapiens, UniProt Q9H4B4).
T3 construct: PLK1 PBD (367-603) and PLK3 PBD (335-646) proteins were obtained from BPS Biosciences Inc; purchased BPS Biosciences Inc. (San Diego, CA)
T3 sequence (Q9H4B4 335-646): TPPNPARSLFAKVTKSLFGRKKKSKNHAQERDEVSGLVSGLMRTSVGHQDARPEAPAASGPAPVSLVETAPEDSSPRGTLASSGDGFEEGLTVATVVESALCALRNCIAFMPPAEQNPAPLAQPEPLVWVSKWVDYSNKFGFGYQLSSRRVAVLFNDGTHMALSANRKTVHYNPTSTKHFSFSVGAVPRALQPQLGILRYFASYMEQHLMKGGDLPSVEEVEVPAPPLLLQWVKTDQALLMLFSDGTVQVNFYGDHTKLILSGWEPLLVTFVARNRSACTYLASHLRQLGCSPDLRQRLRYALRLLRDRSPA
Description: Fluorescence polarization assay, PLK3 PBD. It counts as binding. Here is the method: as §2

Test [3] concerns the target T2, PLK1. Description: PLK1 degradation in PC3 cells. It is filed as cell-based. Details: endogenous in cells; host or cells: PC3 prostate cancer cells. Conditions: PC3 cell line, 24 hours. Here is the method: (§3) For example, PC3 cells were treated with varying dosages of abbapolin 6369, and percent of PLK1 degradation was measured at 24 hours (FIGS. 8A-8B). HeLa cells were treated with 25 μM abbapolin 6369, and time points shown in the assay were 24 hours, 48 hours, and 72 hours (FIGS. 9A-9B). PC3 cells were treated with varying dosages of abbapolin 6329, and percent of PLK1 degradation was measured at 24 hours (FIGS. […]). HeLa cells were treated with varying dosages of abbapolin 6329, and time points shown in the assay were 24 hours, 48 hours, and 72 hours (FIGS. 11A-11B).

The target of test [4] is T2, PLK1. Description: PLK1 degradation in HeLa cells. Conditions: HeLa cell line, 24, 48 and 72 hours. It is filed as cell-based. Also on record: endogenous in cells. Here is the method:
as §3

T1 sequence (P53350 367-603): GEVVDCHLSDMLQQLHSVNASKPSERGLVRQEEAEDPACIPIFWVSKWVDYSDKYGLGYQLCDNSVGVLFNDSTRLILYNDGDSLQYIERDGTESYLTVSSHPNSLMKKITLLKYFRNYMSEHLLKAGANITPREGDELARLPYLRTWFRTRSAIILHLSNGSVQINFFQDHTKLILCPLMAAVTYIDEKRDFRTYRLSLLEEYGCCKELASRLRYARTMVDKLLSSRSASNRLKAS
T2 sequence (P53350 whole entry): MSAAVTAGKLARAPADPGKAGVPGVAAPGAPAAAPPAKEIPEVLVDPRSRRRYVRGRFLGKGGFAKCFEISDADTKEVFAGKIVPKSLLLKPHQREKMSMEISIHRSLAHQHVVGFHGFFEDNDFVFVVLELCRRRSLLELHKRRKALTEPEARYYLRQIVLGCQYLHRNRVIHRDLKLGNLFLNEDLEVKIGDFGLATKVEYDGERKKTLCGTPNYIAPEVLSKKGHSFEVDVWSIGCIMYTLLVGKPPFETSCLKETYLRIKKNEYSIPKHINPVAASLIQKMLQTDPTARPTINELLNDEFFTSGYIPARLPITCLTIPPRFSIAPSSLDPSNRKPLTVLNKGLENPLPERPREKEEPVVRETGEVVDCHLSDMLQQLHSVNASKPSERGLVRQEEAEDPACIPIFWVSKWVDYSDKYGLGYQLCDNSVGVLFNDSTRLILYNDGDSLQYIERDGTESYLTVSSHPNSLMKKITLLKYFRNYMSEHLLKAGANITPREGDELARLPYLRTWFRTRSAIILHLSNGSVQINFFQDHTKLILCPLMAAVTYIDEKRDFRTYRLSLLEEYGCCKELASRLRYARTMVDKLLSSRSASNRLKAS

As for `CCCCCCCOc1cccc(S(=O)(=O)Nc2ccc(C)cc2C(=O)O)c1` [compound 6355], the “Cells Remaining (%)” value with HCT-15 came out at 49.94%; with MDA-MB-468, 55.12%; in the test with SK-MEL-5 it was 59.55%; in the test on NCI-H522 it was 65.09%; in the test with HOP-92 (single dose 25 μM), 57.02%; in the test on SF-295, 59.2%. Besides, the “Cells Remaining (%)” value in the test with UACC-62 came to 61.59%; in the test with RPMI-8226, 51.41%; in the test on CCRF-CEM, 67.09%; in the test on SK-MEL-2, 30.01%; in the test on U251, 64.99%.
Consider `CCCCCCNC(=O)c1ccc(C(=O)Nc2ccc(C)cc2C(=O)O)cc1` [compound 6189], for which the “PLK1 PBD % inhi.” value at PLK1 PBD (367-603) (at 400 μM) worked out at 37% inhi. at.
For the compound `CCCCCCCCc1ccc(C(=O)Nc2cccc(P(=O)(O)O)c2)cc1` [compound 6287], the IC50 at PLK1 PBD (367-603) is 80.8 µM. Further, the PC3 % inhi. in test [1] (at 100 μM) was found to be 50% inhi. at.
As to `CCCCCCCCc1ccc(C(=O)Nc2ccc(C)cc2C(=O)O)cc1C` [compound 6282], at PLK1 PBD (367-603), the IC50 stood at 21 µM.
Turning to `CC[C@@H]1C(=O)N(C)c2cnc(Nc3ccc(C(=O)N[C@H]4CC[C@H](N5CCN(CC6CC6)CC5)CC4)cc3OC)nc2N1C(C)C` [volasertib, reference compound], on PLK1 [2], the “PLK1 thermal stability by CETSA” value is listed as “decreased the stability of PLK1”.
For the compound `CCCCCCCCc1ccc(C(=O)Nc2ccc(C(F)(F)F)cc2C(=O)O)cc1` [compound 6165], the figures for the IC50 (at PLK1 PBD (367-603); in test [1] (72 h); against PLK3 PBD (335-646)) were 23.5 ± 4.9 µM, 14.2 ± 2 µM and 37.6 ± 5.7 µM, respectively.
As to `CCCCCCCCN(C)c1ccc(C(=O)Nc2cc(C)ccc2C(=O)O)cc1` [compound 6171], the IC50 at PLK1 PBD (367-603) was over 600 µM; in test [1] (72 h) it was 27.3 µM.
`Cc1ccc(NC(=O)c2ccc(N)cc2)c(C(=O)O)c1` [compound 6153]: the IC50 on PLK1 PBD (367-603) is over 600 µM; in test [1] (72 h), over 120 µM; on PLK3 PBD (335-646), over 600 µM.
On to `CCCCCCCCc1ccc(C(=O)Nc2ccccc2CP(=O)(O)O)cc1` [compound 6184], for which the IC50 on PLK1 PBD (367-603) is 95.3 µM; in test [1] (72 h), 9.2 µM. In addition, in the test on HOP-92 (single dose 10 μM), the “Cells Remaining (%)” value is 43.86%.
For `CCCCCCCCN(C)c1ccc(C(=O)Nc2ccc(C)cc2C(=O)O)cc1` [compound 6172], the IC50 at PLK1 PBD (367-603) was over 600 µM; in [1] (72 h) it was 28 µM.
In the case of `CCCCCCCCc1ccc(C(=O)Nc2cccc(CP(=O)(O)O)c2)cc1` [compound 6195], the IC50 at PLK1 PBD (367-603) was 51.5 µM; in test [1] (72 h), 20.4 ± 4.4 µM.
Consider `Cc1ccc(NC(=O)c2ccc(OCCCCCCCCCCCNC(=O)CCCC(=O)Nc3cccc4c3C(=O)N(C3CCC(=O)NC3=O)C4=O)cc2)c(C(=O)O)c1` (stereo not shown) [compound 6329], for which the PLK1 degradation entry on PLK1 [3] and at PLK1 [4] was “degradation of PLK1” each time.
For `CCCCCCCCc1cccc(C(=O)Nc2ccc(C)cc2C(=O)O)c1` [compound 6281], on PLK1 PBD (367-603), the IC50 turned out to be 19.5 µM.
On to `Cc1ccc(C(=O)O)c(NC(=O)c2ccc(N)cc2)c1` [compound 6154], for which the IC50 is over 600 µM on PLK1 PBD (367-603) and over 120 µM in [1] (72 h).
Consider `CCCCCCCCc1ccc(C(=O)Nc2ccccc2P(=O)(O)O)cc1` [compound 6286], for which the half-maximal inhibitory concentration (IC50) at PLK1 PBD (367-603) turned out to be 53 µM; in [1] (72 h), 26.6 µM; in test [1] (72 hours), 25.1 µM.
With `CCCCCCCCc1ccc(C(=O)Nc2ccc(C)cc2C(=O)O)cc1OC` [compound 6280], the IC50 is over 100 µM on PLK1 PBD (367-603), 25.9 µM in [1] (72 h), 18.3 µM in [1] (72 hours) and over 200 µM against PLK3 PBD (335-646).

Values taken from US20230338316A1, “ABBAPOLINS AS INHIBITORS AND DEGRADERS OF POLO-LIKE KINASES” (UNIVERSITY OF SOUTH CAROLINA, priority 2022, published 2023).
